Consider one compound from patent US20240391862A1, “(1,4,5-TRISUBSTITUTED-1H-PYRAZOL-3-YL)OXY-2-ALKOXY ALKYL ACIDS AND THEIR DERIVATIVES, THEIR SALTS AND THEIR USE AS HERBICIDAL AGENTS” (Bayer AKtiengesellschaft, priority 2021, published 2024).

Each structure is given as a SMILES string.

For data set [1], the system named is TRZAS. In words: Post-emergence herbicidal effect and crop plant compatibility, greenhouse pot test. Type of data set: in vivo, Triticum aestivum. As to conditions: for Post-emergence effect against TRZAS: visual rating about 3 weeks after treatment, crop plant. From the text:
• ALOMY: Alopecurus myosuroides SETVI: Setaria viridis • AVEFA: Avena fatua POLCO: Fallopia convolvulus • AMARE: Amaranthus retroflexus ECHCG: Echinochloa crus-galli • LOLRJ: Lolium rigidum STEME: Stellaria media • VERPE: Veronica persica MATIN: Tripleurospermum inodorum • DIGSA: Digitaria sanguinalis ABUTH: Abutylon threophrasti • TRZAS: Triticum aestivum VIOTR: Viola tricolor • BRSNW: Brassica napus ZEAMX: Zea mays • PHBPU: Ipomoea purpurea GLXMA: Glycine max • ORYSA: Oryza sativa HORMU: Hordeum murinum
Seeds of monocotyledonous and dicotyledonous weeds and crop plants are placed in sandy loam in plastic or organic planting pots, covered with soil and cultivated in a greenhouse under controlled growth conditions. 2 to 3 weeks after sowing, the trial plants are treated at the one-leaf stage. The compounds of the invention, formulated in the form of wettable powders (WP) or as emulsion concentrates (EC), are then sprayed onto the green parts of the plants as aqueous suspension or emulsion with addition of 0.5% additive at a water application rate of 600 l/ha (converted). After the test plants have been kept in the greenhouse under optimum growth conditions for about 3 weeks, the activity of the preparations is rated visually in comparison to untreated controls. For example, 100% activity=the plants have died, 0% activity=like control plants.
Tables 20a to 38c below show the effects/crop compatibilities of selected compounds of the general formula (I) on various harmful plants at an application rate corresponding to 20 to 320 g/ha, which were obtained by the trial procedure specified above.

Data set [2] deals with ABUTH. Description: Post-emergence herbicidal effect, greenhouse pot test. Conditions: visual rating about 3 weeks after treatment. Format: in vivo, Abutilon theophrasti. The method, boiled down:
(§1)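 Greenhouse pot plants in sandy loam receive a one-leaf-stage spray at 20 to 320 g/ha. Activity is assessed visually around 3 weeks afterwards on a 0–100% scale, where 100% means the plants have died.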

Data set [3] relates to AMARE. The data set is described as above. Format: in vivo, Amaranthus retroflexus. As to conditions: visual rating about 3 weeks after treatment. The gist of the method:
as §1

The test system of data set [4] is AVEFA. The description is as above. Format: in vivo, Avena fatua. As to conditions: 320 g/ha, visual rating about 3 weeks after treatment. The method, boiled down: as §1
Data set [5] concerns DIGSA. The description is as above. Conditions: 320 g/ha, visual rating about 3 weeks after treatment. Format: in vivo, Digitaria sanguinalis. The gist of the method: as §1
For data set [6], the system named is ECHCG. Described as above. Type of data set: in vivo, Echinochloa crus-galli. The method, boiled down: as §1
The subject of data set [7] is MATIN. The data set is described as above. Format: in vivo, Tripleurospermum inodorum. The method, boiled down:
as §1

For data set [8], the system named is PHBPU. The data set is described as above. Type of data set: in vivo, Ipomoea purpurea. The method, boiled down:
as §1

The test system of data set [9] is SETVI. Described as above. Format: in vivo, Setaria viridis. As to conditions: 320 g/ha. The method, boiled down:
as §1

Data set [10] has as its system VERPE. Described as above. Format: in vivo, Veronica persica. The method, boiled down:
as §1

In data set [11] the test system is VIOTR. Described as above. Type of data set: in vivo, Viola tricolor. The gist of the method:
as §1

As for `CCOC(=O)C(OC)Oc1nn(-c2cccc(C)c2F)c(-c2ccc(F)nc2)c1Br` (stereo not shown) [Example I-94], the “Post-emergence effect at 20 g/ha against TRZAS in %” value in data set [1] (20 g/ha, one-leaf stage, rated visually after about 3 weeks vs untreated controls) is given as 0%. The “Post-emergence effect against TRZAS” value in data set [1] (80 g/ha) came out at 10%; in data set [1] (320 g/ha), 20%. Besides, the “Post-emergence effect against ABUTH” value in [2] (80 g/ha) is recorded as 80%; in [2] (320 g/ha) it was 90%. For the same compound, the figures for the “Post-emergence effect against AMARE” value in [3] (80 g/ha) and in [3] (320 g/ha) were 80% and 90%, respectively. Also, in [4], the “Post-emergence effect against AVEFA” value was 80%. Moreover, the “Post-emergence effect against DIGSA” value in data set [5] came to 80%. Moreover, the “Post-emergence effect against ECHCG” value in data set [6] (20 g/ha, visual rating about 3 weeks after treatment) worked out at 80%. The “Post-emergence effect against ECHCG in %” value in data set [6] (80 g/ha) and in data set [6] (320 g/ha) was 100% in each case. Moreover, the “Post-emergence effect against MATIN in %” value in data set [7] (80 g/ha) is recorded as 80%; in [7] (320 g/ha) it was 90%. Besides, the “Post-emergence effect against PHBPU in %” value in data set [8] (20 g/ha) stood at 80%; in [8] (80 g/ha), 90%; in data set [8] (320 g/ha) it was 90%. In data set [9], the “Post-emergence effect against SETVI in %” value was 90%. Also, the “Post-emergence effect against VERPE in %” value in data set [10] (80 g/ha) is recorded as 80%; in [10] (320 g/ha) it was 90%. Besides, the “Post-emergence effect against VIOTR in %” value in data set [11] (80 g/ha) is 80%; in [11] (320 g/ha), 90%.
